Drawing on patent US8063065B2, “Azaindazole compounds as CCR1 receptor antagonists” (Boehringer Ingelheim International GmbH, priority 2008, dated 2011), this text covers IC50 for 22 compounds.

pIC50: −log10 of the molar value.

For the experiment, the target named is T1, CCR1 (Homo sapiens, UniProt P32246).
T1 sequence (P32246 1-355): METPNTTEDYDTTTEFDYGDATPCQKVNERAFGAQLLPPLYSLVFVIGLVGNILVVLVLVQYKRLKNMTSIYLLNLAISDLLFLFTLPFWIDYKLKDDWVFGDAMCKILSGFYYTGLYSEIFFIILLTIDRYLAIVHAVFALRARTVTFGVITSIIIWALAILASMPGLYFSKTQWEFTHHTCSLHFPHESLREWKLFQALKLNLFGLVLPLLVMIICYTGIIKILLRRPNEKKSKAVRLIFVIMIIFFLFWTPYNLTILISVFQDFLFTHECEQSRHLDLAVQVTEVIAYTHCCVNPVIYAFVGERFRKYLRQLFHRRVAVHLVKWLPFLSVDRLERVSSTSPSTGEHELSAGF
Put plainly: Method B: calcium flux in CCR1 transfected cells (Calcium 4 dye, […] FDSS6000), block of the CCR1/MIP-1α interaction. The experiment is classed as cell-based. The conditions noted are these: Method B: Calcium 4 dye, MIP-1alpha at EC80. In outline: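 Calcium flux on an FDSS6000 was triggered by MIP-1α at its EC80 in stably CCR1/G-alpha-16-expressing non-adherent cells. Before this, Calcium 4-loaded cells were preincubated with compound in HBSS, 20 mM HEPES pH 7.4, 1% DMSO: 30 min at 37 C plus 30 min at room temperature. Ten 4-fold doses began at 3,000 nM, with ±MIP-1α DMSO wells as controls.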

Usually pIC50 stands for the negative decadic logarithm of the IC50, by convention in mol/L.

As to `CS(=O)(=O)c1cc([C@H](CCO)NC(=O)c2cncc3c2cnn3-c2ccc(F)cc2)ccn1` [1-(4-Fluorophenyl)-1H-pyrazolo[3,4-c]pyridine-4-carboxylic acid [(S)-3-hydroxy-1-(2-methanesulfonyl-pyridin-4-yl)-propyl]-amide], the pIC50 is 7.92.
For the compound `CCC(NC(=O)c1cncc2c1cnn2-c1ccc(F)cc1)c1ccc(S(C)(=O)=O)[n+]([O-])c1` (stereo not shown) [1-(4-Fluorophenyl)-1H-pyrazolo[3,4-c]pyridine-4-carboxylic acid [1-(6-methanesulfonyl-1-oxy-pyridin-3-yl)-propyl]-amide], the pIC50 was 8.05.
For the compound `CCC(C)(NC(=O)c1cncc2c1cnn2-c1ccc(F)cc1)c1ccnc(Br)c1` (stereo not shown) [1-(4-Fluorophenyl)-1H-pyrazolo[3,4-c]pyridine-4-carboxylic acid [1-(2-bromo-pyridin-4-yl)-1-methyl-propyl]-amide], the pIC50 was 7.96.
Next, `CCC(NC(=O)c1cncc2c1cnn2-c1ccc(F)cc1)C1CCCN(S(C)(=O)=O)C1` (stereo not shown) [1-(4-Fluorophenyl)-1H-pyrazolo[3,4-c]pyridine-4-carboxylic acid [1-(1-methanesulfonyl-piperidin-3-yl)-propyl]-amide]: 8.70.
Consider `CC[C@H](NC(=O)c1cncc2c1cnn2-c1ccc(F)cc1)c1nc(C(=O)OC)cs1` [2-((S)-1-{[1-(4-Fluorophenyl)-1H-pyrazolo[3,4-c]pyridine-4-carbonyl]-amino}-propyl)-thiazole-4-carboxylic acid methyl ester], for which the pIC50 is 8.30.
As to `COC[C@H](NC(=O)c1cncc2c1cnn2-c1ccc(F)cc1)c1ccnc(Br)c1` [1-(4-Fluorophenyl)-1H-pyrazolo[3,4-c]pyridine-4-carboxylic acid [(R)-1-(2-bromopyridin-4-yl)-2-methoxy-ethyl]-amide], the pIC50 was 9.30.
For the compound `Cc1cc(CNC(=O)c2cncc3c2cnn3-c2ccc(F)cc2)cc(S(C)(=O)=O)n1` [1-(4-Fluorophenyl)-1H-pyrazolo[3,4-c]pyridine-4-carboxylic acid (2-methanesulfonyl-6-methyl-pyridin-4-ylmethyl)-amide], the pIC50 is 8.30.
As for `CC[C@H](NC(=O)c1cncc2c1cnn2-c1ccc(F)cc1)c1cc(NCC(N)=O)nc(S(C)(=O)=O)c1` [1-(4-Fluorophenyl)-1H-pyrazolo[3,4-c]pyridine-4-carboxylic acid {(S)-1-[2-(carbamoylmethyl-amino)-6-methanesulfonyl-pyridin-4-yl]-propyl}-amide], the pIC50 was 9.40.
The value for `CC[C@H](NC(=O)c1cncc2c1cnn2-c1ccc(F)cc1)c1cc(N(C)C)nc(S(C)(=O)=O)c1` [1-(4-Fluorophenyl)-1H-pyrazolo[3,4-c]pyridine-4-carboxylic acid [(S)-1-(2-dimethylamino-6-methanesulfonyl-pyridin-4-yl)-propyl]-amide] was 9.70.
Next, `CC[C@H](NC(=O)c1cncc2c1cnn2-c1ccc(F)cc1)c1ccc(Br)c(OC)c1` [1-(4-Fluorophenyl)-1H-pyrazolo[3,4-c]pyridine-4-carboxylic acid [(S)-1-(4-bromo-3-methoxy-phenyl)-propyl]-amide]: 9.30; `CC[C@H](NC(=O)c1cncc2c1cnn2-c1ccc(F)cc1)c1ccc(S(=O)(=O)NC2CC2)nc1` [1-(4-Fluorophenyl)-1H-pyrazolo[3,4-c]pyridine-4-carboxylic acid [(S)-1-(6-cyclopropylsulfamoyl-pyridin-3-yl)-propyl]-amide]: 9.70.
The value for `CC[C@H](NC(=O)c1cncc2c1cnn2-c1ccc(F)cc1)c1ccc(OC)c(Br)c1` [1-(4-Fluorophenyl)-1H-pyrazolo[3,4-c]pyridine-4-carboxylic acid [(S)-1-(3-bromo-4-methoxy-phenyl)-propyl]-amide] was 8.15.
As to `CC[C@H](NC(=O)c1cncc2c1cnn2-c1ccc(F)cc1)c1cc(S(C)(=O)=O)ccn1` [1-(4-Fluorophenyl)-1H-pyrazolo[3,4-c]pyridine-4-carboxylic acid [(S)-1-(4-methanesulfonyl-pyridin-2-yl)-propyl]-amide], the pIC50 was 9.10.
Regarding `CN(c1ncc(CNC(=O)c2cncc3c2cnn3-c2ccc(F)cc2)cn1)S(C)(=O)=O` [1-(4-Fluorophenyl)-1H-pyrazolo[3,4-c]pyridine-4-carboxylic acid [2-(methanesulfonyl-methyl-amino)-pyrimidin-5-ylmethyl]-amide], the pIC50 was 8.70.
As for `CC[C@H](NC(=O)c1cncc2c1cnn2-c1ccc(F)cc1)c1ccnc(C(N)=O)c1` [1-(4-Fluorophenyl)-1H-pyrazolo[3,4-c]pyridine-4-carboxylic acid [(S)-1-(2-carbamoyl-pyridin-4-yl)-propyl]-amide], the pIC50 is 9.00.
For `CC[C@H](NC(=O)c1cncc2c1cnn2-c1ccc(F)cc1)c1nc(S(C)(=O)=O)cs1` [1-(4-Fluorophenyl)-1H-pyrazolo[3,4-c]pyridine-4-carboxylic acid [(S)-1-(4-methanesulfonyl-thiazol-2-yl)-propyl]-amide], the pIC50 was 9.52.
In the case of `C[C@H](NC(=O)c1cncc2c1cnn2-c1ccc(F)cc1)c1cccc(Cl)c1` [1-(4-Fluorophenyl)-1H-pyrazolo[3,4-c]pyridine-4-carboxylic acid [(S)-1-(3-chlorophenyl)-ethyl]-amide], the pIC50 was 8.30.
Consider `CC[C@H](NC(=O)c1cncc2c1cnn2-c1ccc(F)cc1)c1cc(S(C)(=O)=O)c[nH]1` [1-(4-Fluorophenyl)-1H-pyrazolo[3,4-c]pyridine-4-carboxylic acid [(S)-1-(4-methanesulfonyl-1H-pyrrol-2-yl)-propyl]-amide], for which the pIC50 is 9.00.
The value for `CC[C@H](NC(=O)c1cncc2c1cnn2-c1ccc(F)cc1)c1ccnc(C(=O)O)c1` [4-((S)-1-{[1-(4-Fluorophenyl)-1H-pyrazolo[3,4-c]pyridine-4-carbonyl]-amino}-propyl)-pyridine-2-carboxylic acid] was 7.92.
`CC[C@@H](NC(=O)c1cncc2c1cnn2-c1ccc(F)cc1)c1ccc(OC)c(S(C)(=O)=O)c1` [1-(4-Fluorophenyl)-1H-pyrazolo[3,4-c]pyridine-4-carboxylic acid [(R)-1-(3-methanesulfonyl-4-methoxy-phenyl)-propyl]-amide]: the pIC50 was 9.70.
Next, `C[C@H](NC(=O)c1cncc2c1cnn2-c1ccc(F)cc1)c1cc(NCC(N)=O)nc(S(C)(=O)=O)c1` [1-(4-Fluorophenyl)-1H-pyrazolo[3,4-c]pyridine-4-carboxylic acid {(S)-1-[2-(carbamoylmethyl-amino)-6-methanesulfonyl-pyridin-4-yl]-ethyl}-amide]: 9.22; `O=C(NCc1cnc(Br)s1)c1cncc2c1cnn2-c1ccc(F)cc1` [1-(4-Fluorophenyl)-1H-pyrazolo[3,4-c]pyridine-4-carboxylic acid (2-bromo-thiazol-5-ylmethyl)-amide]: 7.60.
